# Patent US11446264B2, “Memory manipulation via modification of protein kinase C zeta activity” (THE RESEARCH FOUNDATION FOR THE STATE UNIVERSITY OF NEW YORK, priority 2017, dated 2022)
# Key:
# PKC zeta = target: T1, PKC zeta (Homo sapiens, UniProt Q05513); test: kinase activity assay ([γ-32P]ATP, e-peptide substrate), PKC zeta; type: biochemical
# T1 construct: made in house
# T1 sequence (Q05513 1-592): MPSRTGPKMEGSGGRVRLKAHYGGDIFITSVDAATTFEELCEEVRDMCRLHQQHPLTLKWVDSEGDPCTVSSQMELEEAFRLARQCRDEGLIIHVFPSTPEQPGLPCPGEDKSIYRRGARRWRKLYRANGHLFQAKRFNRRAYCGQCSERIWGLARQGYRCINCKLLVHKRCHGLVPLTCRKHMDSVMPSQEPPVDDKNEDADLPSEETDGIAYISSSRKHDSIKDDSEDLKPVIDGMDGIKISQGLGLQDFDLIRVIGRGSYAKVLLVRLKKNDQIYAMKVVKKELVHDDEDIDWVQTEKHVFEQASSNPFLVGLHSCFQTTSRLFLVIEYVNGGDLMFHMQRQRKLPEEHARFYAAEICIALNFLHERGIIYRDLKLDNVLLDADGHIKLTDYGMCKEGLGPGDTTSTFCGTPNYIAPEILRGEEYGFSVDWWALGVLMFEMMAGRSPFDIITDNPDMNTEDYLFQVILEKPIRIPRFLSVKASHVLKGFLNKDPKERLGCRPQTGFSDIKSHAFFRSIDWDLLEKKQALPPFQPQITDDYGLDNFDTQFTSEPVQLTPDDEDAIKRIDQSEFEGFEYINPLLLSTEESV
# Experimental: (§1) In separate experiments, PKC zeta and PKM zeta were recombinantly expressed and purified. PKC iota/lambda was purchased from ProQinase GmbH (Freiburg, Germany). The reaction mixture ([…] final volume) contained: 50 mM Tris-HCl (pH 7.4), 10 mM MgCl2, 1 mM DTT, […] e-peptide substrate (ERMRPRKRQGSVRRRV, AnaSpec, Freemont, Calif.), in the presence or absence of phosphatidylserine (5 mg/ml, Avanti Polar Lipids, Alabaster, Ala.), and PKC iota/lambda (184 ng, 0.2 pmol/min per assay) or PKM zeta (4 ng, 0.2 pmolmin-1/assay), in the presence or absence of NSA at concentrations given on the X axis. The reaction, initiated with the addition of […] (final concentration, ˜1-3 μCi [γ-32P]/assay), was for 30 min at 30° C., which is in the linear range for enzyme concentration (data not shown). The reaction was stopped by addition of […] of 100 mM cold ATP and 100 mM EDTA, and 40 ml of the reaction mixture was spotted onto phosphocellulose paper and counted by liquid scintillation. Activity was measured as the difference between counts incorporated in the presence and absence of enzyme. Autonomous kinase activity is defined as activity in the absence of phosphatidylserine. […] Thus, as disclosed herein, administering NSA inhibits activity of PKC zeta and PKM zeta.
# PKC iota/lambda = target: T2, PKC iota/lambda (Homo sapiens, UniProt P41743); test: kinase activity assay ([γ-32P]ATP, e-peptide substrate), PKC iota/lambda; type: biochemical; conditions: at doses up to 10 μM
# T2 construct: purchased ProQinase GmbH (Freiburg, Germany)
# T2 sequence (P41743 1-596): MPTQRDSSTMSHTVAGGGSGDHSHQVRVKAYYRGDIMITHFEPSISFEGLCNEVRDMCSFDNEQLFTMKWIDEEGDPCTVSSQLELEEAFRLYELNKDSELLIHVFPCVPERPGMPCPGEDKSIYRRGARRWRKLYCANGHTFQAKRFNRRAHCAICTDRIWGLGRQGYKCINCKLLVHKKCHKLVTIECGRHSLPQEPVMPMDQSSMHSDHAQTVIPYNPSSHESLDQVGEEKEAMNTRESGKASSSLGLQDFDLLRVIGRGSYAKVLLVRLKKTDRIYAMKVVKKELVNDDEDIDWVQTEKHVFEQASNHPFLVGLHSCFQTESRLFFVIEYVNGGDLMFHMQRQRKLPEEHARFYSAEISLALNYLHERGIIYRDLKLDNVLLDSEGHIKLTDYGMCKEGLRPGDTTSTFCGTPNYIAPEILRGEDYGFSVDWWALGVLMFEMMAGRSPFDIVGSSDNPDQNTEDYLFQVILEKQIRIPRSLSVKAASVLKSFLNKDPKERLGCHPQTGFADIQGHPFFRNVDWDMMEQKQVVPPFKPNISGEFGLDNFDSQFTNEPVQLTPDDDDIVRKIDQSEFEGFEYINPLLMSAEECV
# Experimental: as §1
# [1] = test system: hippocampal slices from wild-type mice; test: maintenance of LTP in hippocampal slices from wild-type mice; type: cell-based, mouse; conditions: NSA 10 μM applied 3 h post-tetanization, FIG. 3
# Experimental: (§2) Acute mouse hippocampal slices (450 μm) were dissected, bathed in ice-cold dissection buffer, and sliced with a McIlwain tissue slicer in a cold room (4° C.). The dissection buffer contained (in mM): 125 NaCl, 2.5 KCl, 1.25 NaH2PO4, 26 NaHCO3, 11 glucose, 10 MgCl2, and 0.5 CaCl2, and was bubbled with 95% O2/5% CO2 to maintain the pH at 7.4. The slices were immediately transferred into an interface recording chamber (31.5±1° C.). The recording superfusate consisted of (in mM): 118 NaCl, 3.5 KCl, 2.5 CaCl2, 1.3 MgSO4, 1.25 NaH2PO4, 24 NaHCO3, and 15 glucose, bubbled with 95% O2/5% CO2, with a flow rate of 0.5 ml/min. […] Pathway independence was confirmed by the absence of paired-pulse facilitation between the two pathways. The high-frequency stimulation consisted of standard two 100 Hz-1 s tetanic trains, at 25% of spike threshold, spaced 20 s apart, which is optimized to produce a relatively rapid onset of protein synthesis-dependent late-LTP. The maximum slope of the rise of the fEPSP is analyzed on a PC using the WinLTP data acquisition program. Application of NSA (black bar) beginning 3 hr after application of high-frequency stimulation reversed the maintenance of LTP seen during this time period, which is known to require PKC zeta/PKM zeta activity.
# [2] = test system: hippocampal slices from mice lacking expression of PKC zeta/PKM zeta; test: maintenance of LTP in hippocampal slices from PKC zeta/PKM zeta null mice; type: cell-based, mouse; conditions: FIG. 4
# Experimental: as §2, with “activity. […]” for “activity.”
# wild-type mice [3] = test: active place avoidance, long-term memory retention, wild-type mice; type: in vivo, mouse; conditions: 5 nmol in 0.5 μl/hippocampus, 1 day after training, FIG. 5
# Experimental: (§3) A commercial computer-controlled active place avoidance system was used (Bio-Signal Group, Acton, Mass.). The position of the mouse on a 40 cm diameter circular arena rotating at 1 rpm was determined 30 times per second by video tracking from an overhead camera (Tracker, Bio-Signal Group). All experiments used the ‘Room+Arena−’ task variant that challenges the mouse on the rotating arena to avoid a shock zone that was a stationary 60° sector. A constant current foot-shock (60 Hz, 500 ms) was delivered after entering the shock zone for 500 ms and was repeated each 1500 ms until the mouse left the shock zone. The arena rotation periodically transported the animal into the shock zone, forcing it to actively avoid the location of shock. The shock amplitude was 0.2 or 0.3 mA, which was determined for each animal in the first session to be the minimum that elicited flinch or escape responses.
# (§4) A clear wall made from Polyethylene Terephtalate Glycol-modified (PET-G) prevented the animal from jumping off the elevated arena surface. […] Every 33 ms, the software determined the mouse's position, whether it was in the shock zone, and whether to deliver shock. The time series of the tracked positions was analyzed offline (TrackAnalysis, Bio-Signal Group) to extract a number of end point measures. […]
# PKCζ-null mice = test: active place avoidance, long-term memory retention, PKC zeta/PKM zeta null mice; type: in vivo, mouse; conditions: 5 nmol in 0.5 μl/hippocampus, 1 day after training, FIG. 5
# Experimental: as §3, §4
# wild-type mice [4] = test: active place avoidance, retraining and retesting in a different context after NSA; type: in vivo, mouse; conditions: n's=5, FIG. 6
# From the text: Above, representative diagram of training protocol, similar to that described for FIG. 5. After training, memory erasure by NSA injection in hippocampus, and retention testing in one context, mice are immediately retrained and retested in a different context. NSA on relearning ([…] with repeated measurements). There is a significant interaction between the effects of treatment (control, NSA) and trials (pretraining, training, retention in two environments) (F5,40=4.41, P=0.0027). The main effect of treatment is F1,8=3.34, p=0.10. […] Thus, the effects NSA administration has on inhibiting memory are not due to generalized, permanent damage to neural substrates responsible for learning and memory.
smiles,measurement,setting,value
"O=S(=O)(O)c1cc(O)c2c(S(=O)(=O)O)cc(S(=O)(=O)O)cc2c1 [NSA, 1-naphthol-3,6,8-trisulphonic acid]",IC50,"PKC zeta; FIG. 2, mean±SEM, ns=3, 30 min at 30° C., read-out: IC50 as a negative modulator of PKC zeta/PKM zeta activity",100 to 200 nM
same,decrease of PKC zeta/PKM zeta activity,"PKC zeta; FIG. 2, extent of decrease",approximately 50%
same,effect on PKC iota/lambda kinase activity,PKC iota/lambda,without effect
same,maintenance of LTP (fEPSP slope),[1],reverses maintenance of LTP
same,maintenance of LTP (fEPSP slope),[2],no effect on maintenance of LTP
same,retention of avoidance (time to first enter the shock zone),wild-type mice [3],inhibited retention of avoidance
same,retention of avoidance (time to first enter the shock zone),PKCζ-null mice,did not affect retention testing
same,memory retention of the pre-injection training,wild-type mice [4]; NSA injection in hippocampus,disrupts memory retention
same,memory retention of the post-injection training (different context),wild-type mice [4]; retrained and retested after NSA injection in hippocampus,no effect
